Legend:
[1] = test system: HeLa cells; experiment: MTT cytotoxicity assay, HeLa; format: cell-based, human; settings: for IC50 fold difference vs the corresponding C-NH compound (1N or 1′N): HeLa cells; for IC50: Homo sapiens, HeLa, MTT, drug exposure 48 h, mean ± SD (n = 3), read-out: Cytotoxic activity (IC50) HeLa
Description: (§1) Cytotoxicity of the podophyllum derivatives were determined by reading the absorbance at 492 nm on a multiplate reader (Thermo Fisher Scientific, Multiskan MK3). Cell cycle analysis and apoptosis analysis were analyzed by flow cytometry (Accuri C6, BD). Immunofluorescence images were recorded using laser scanning microscope (Perkin-Elmer & Olympus, UltraView VoX & Ix81). The gel for the decatenation of kDNA by Topoisomerase II study was photographed with UV illumination, Tanon 1600 (Tanon Science & Technology Co., Ltd., Shanghai). The nitrocellulose blotting membrane for western blot analysis was visualized using X-ray film processor and X-ray film, Fujifilm SUPER RX-N-C.
(§2) Cytotoxicity assay was performed on human lung adenocarcinoma epithelial cell line (A549), henrietta lacks strain of cancer cells (HeLa), human gastric carcinoma cell line (BGC 823), and normal human hepatocyte cell line (HL-7702). Cells (3500–13,000) in a 100 μL culture medium per well were seeded into 96-well microtest plates (Falcon, CA). A549 cell lines, HeLa cell lines and HL-7702 cell lines were cultured in DMEM supplemented with 10% CS, 100 mg/L penicillin G, 100 mg/L streptomycin. BGC 823 cell lines were cultured in RPMI medium 1640 supplemented with 10% CS, 100 mg/L penicillin G, and 100 mg/L streptomycin. The cells were incubated at 37 °C, in a humidified atmosphere with 5% CO2 for 48 h. For all cell lines, the microculture tetrazolium [3-(4, 5-dimethylthiazol-2-yl)-2, 5-diphenyltetrazolium bromide, MTT; Sigma, St. Louis, MO] assay was performed to measure the cytotoxic effects. Drug stock solutions (the each drug concentration was 0.5, 1, 10, 20, 50, 100, 200, and 500 μM, respectively) were prepared in DMSO and the final solvent concentration was ≤ 2% DMSO (v/v), a concentration without effect on cell replication. Initial seeding densities varied among the cell lines to ensure a final absorbance reading in control (untreated) cultures in the range 0.6–0.8 A492 units. Drug exposure was for 2 days, and the IC50 value, the drug concentration that reduced the absorbance by 50%, was interpolated from dose-response data. Each test was performed in triplicate, and absorbance readings varied no more than 5%. Data presented as means ± standard deviation (SD). Statistical analyses were performed by the analysis of variance (ANOVA). All statistical analyses were performed using Origin version 8.0 ([…], OriginLab Corp., Northampton, MA, USA). Sigmoidal dose responses and non-linear regression analyses were undertaken to identify half-maximal concentrations for each of the drugs. To evaluate differences in IC50 concentrations, analysis of variance combined with Tukey’s multiple range test was used.

[2] = test system: BGC-823 cells; experiment: MTT cytotoxicity assay, BGC-823; format: cell-based, human; settings: for IC50: Homo sapiens, BGC-823, MTT, drug exposure 48 h, mean ± SD (n = 3), read-out: Cytotoxic activity (IC50) BGC-823
Description: as §1, §2

[3] = test system: A549 cells; experiment: MTT cytotoxicity assay, A549; format: cell-based, human; settings: for IC50: Homo sapiens, A549, 48 h, MTT, drug exposure 48 h, mean ± SD (n = 3), read-out: Cytotoxic activity (IC50) A549
Description: as §1, §2

[4] = MTT cytotoxicity assay, normal hepatocyte HL-7702; format: cell-based; settings: HL-7702 cells (normal hepatocyte cell line), normal human hepatocyte cell line, drug exposure 48 h, mean ± SD (n = 3), read-out: Cytotoxic activity (IC50) HL-7702
Description: as §1, §2

[5] = test system: HeLa cells; experiment: Flow cytometry cell cycle analysis in HeLa cells; format: cell-based, human; settings: for G2/M phase arrest: 0.1 μM; for percentage of G2/M phase cells: 1 μM; for percentage of G2/M phase cells / percentage of G2/M phase cells (maximum): 48 h; for percentage of G2/M phase cells (maximum): 5 μM
Description: (§3) For the cell cycle analysis, HeLa cells were treated with test compounds for 6, 12, 24 and 48 h at 37 °C in 6-well plates. Appropriate controls, in which cells were mock-treated by DMSO (<1%) for the same durations, were also set up. After being treated, all cells were trypsinized and collected, washed twice with PBS, added with 4 °C 70% ethanol (10 mL) and stored overnight at 4 °C. After this, cells were spun down at 1500 rpm for 5 min, washed once with PBS, and then treated with the mixture of 10 μL RNase (10 mg/mL), 50 μL propidium iodide (1 mg/mL) and 940 μL 1 × PBS, incubated at room temperature for 30 min in the dark. The stained cells were analyzed by flow cytometry. The result was analyzed with ModFit LT^TM 3.2 version software. For the apoptosis determination, after 6, 12, 24 and 48 h treatment with test compounds, HeLa cells were harvested, re-suspend in 500 μL annexin-binding buffer (10mM HEPES, 140 mM NaCl, 2.5 mM CaCl2, pH 7.4) at the cell density of about 10^6 cells/mL and stained with 5 μL annexin V and 5 μL propidium iodide for 15 min at room temperature. Changes in intracellular ROS levels were determined by measuring the oxidative conversion of cell permeable 2′,7′-dichlorofluorescein diacetate (DCFH-DA) to fluorescent di-chlorofluorescein (DCF) in flow cytometry (BD Accuri C6). Cells in 6-well culture dishes were incubated with DMEM for 6, 12, 24 and 48 h in the absence or presence of test compounds. The cells were washed with DMEM and incubated with DCFH-DA (10 μM) at 37 °C for 30 min. Then DCF fluorescence of 10,000 cells was detected by flow cytometry.

[6] = test system: HeLa cells; experiment: Flow cytometry ROS (DCFH-DA) in HeLa cells; format: cell-based, human; settings: for fluorescence intensity of ROS: 10 μM
Description: as §3

[7] = test system: HeLa cells; experiment: Western blot of apoptosis pathway proteins in HeLa cells; format: cell-based, human; settings: 1 μM; for apoptotic pathways activated (BimEL, caspase-9, -8, -3, PARP): 12–48 h; for activation of ATM, ATR, caspase-8, 9 and 3: 0-48 h
Description: Cells were lysed by adding 100 μL of RIPA buffer (50 mM Tris, pH 8.0, 150 mM NaCl, 1% TX-100, 0.5% sodium deoxycholate, 0.1% SDS) with 1% Protease Inhibitor PMSF. Each sample was then vigorously vortexed twice for 15 seconds, with a 30-minute incubation on ice following each agitation. The cellular debris was pelleted (12,000 rpm, 10 min), and then 100 μL of the protein suspension was transferred to fresh 0.5 mL tubes. The protein levels were quantified using a standard BCA (Thermo Scientific), after which the samples were diluted with deionized water to achieve equal protein concentrations for all samples. Prior to analyzing the samples, 5 × Loading buffer (350 mM Tris, pH 6.8, 12% SDS, 0.012% bromophenol blue, 47% glycerol) with 5% β-mercaptoethanol was added to each sample to achieve a final 1 × concentration, after which the samples were incubated at 95 °C for 10 minutes to denature the protein samples. 20–30 μg of protein was added to and run on a 15-well 4–20% Tris-HCl gel. The gel was equilibrated buffer (39 mM glycine, 48 mM, 0.037 g/L SDS, 200 mL/L methanol) for 5 minutes, then the protein were transferred to a PVDF membrane, which was incubated with 5% fetal bovine serum in TBST (20 mM Tris-HCl, pH 8.0, 150 mM, 0.5 mL/L Tween-20) for 1 h to block non-specific binding, and then probed for the primary antibody at a 1:1000 dilution with a blocking agent in TBST for 1 h at room temperature. The blot was washed with TBST, and then probed with a secondary antibody in TBST for 1 hour at room temperature. The blot was washed with TBST, and then The ECL detection kit (Millipore) was added to catalyze oxidation of luminol to emit chemiluminescence, and the membrane was visualized using X-ray film processor and X-ray film (Fujifilm SUPER RX-N-C).

[8] = biological target: T1, Topoisomerase II (Homo sapiens, UniProt P11388); experiment: kDNA decatenation assay (Topoisomerase II inhibition); format: biochemical; settings: 100 μM
T1 construct: purchased TopoGEN Inc., USA 2000H
Description: Kinetoplast DNA (kDNA) is a catenated network of mitochondrial DNA seen in trypanosomes.
Topoisomerase II activity was determined using kit (TopoGEN Inc., USA, Cat no. 2000H). […] Next, 4 U of topoisomerase II was added and the reaction was allowed to proceed for 60 min at 37 °C. The reaction was stopped by the addition of 1/10 volume of 1 mg/mL proteinase K and incubated for 15 min at 37 °C. The reaction was quenched via the addition of loading buffer (350 mM Tris, pH 6.8, 12% SDS, 0.012% bromophenol blue, 47% glycerol) and was then analyzed by electrophoresis on a 1% agarose gel in TBE buffer (89 mM Tris, 89 mM borate, and 2 mM Na-EDTA, pH 8.3) for 0.5 h at 140 V. The gel was visualized under UV illumination and photographed on an Alpha Imager.

[9] = before the 48 h change (24 h induction)

T1 sequence (P11388 whole entry): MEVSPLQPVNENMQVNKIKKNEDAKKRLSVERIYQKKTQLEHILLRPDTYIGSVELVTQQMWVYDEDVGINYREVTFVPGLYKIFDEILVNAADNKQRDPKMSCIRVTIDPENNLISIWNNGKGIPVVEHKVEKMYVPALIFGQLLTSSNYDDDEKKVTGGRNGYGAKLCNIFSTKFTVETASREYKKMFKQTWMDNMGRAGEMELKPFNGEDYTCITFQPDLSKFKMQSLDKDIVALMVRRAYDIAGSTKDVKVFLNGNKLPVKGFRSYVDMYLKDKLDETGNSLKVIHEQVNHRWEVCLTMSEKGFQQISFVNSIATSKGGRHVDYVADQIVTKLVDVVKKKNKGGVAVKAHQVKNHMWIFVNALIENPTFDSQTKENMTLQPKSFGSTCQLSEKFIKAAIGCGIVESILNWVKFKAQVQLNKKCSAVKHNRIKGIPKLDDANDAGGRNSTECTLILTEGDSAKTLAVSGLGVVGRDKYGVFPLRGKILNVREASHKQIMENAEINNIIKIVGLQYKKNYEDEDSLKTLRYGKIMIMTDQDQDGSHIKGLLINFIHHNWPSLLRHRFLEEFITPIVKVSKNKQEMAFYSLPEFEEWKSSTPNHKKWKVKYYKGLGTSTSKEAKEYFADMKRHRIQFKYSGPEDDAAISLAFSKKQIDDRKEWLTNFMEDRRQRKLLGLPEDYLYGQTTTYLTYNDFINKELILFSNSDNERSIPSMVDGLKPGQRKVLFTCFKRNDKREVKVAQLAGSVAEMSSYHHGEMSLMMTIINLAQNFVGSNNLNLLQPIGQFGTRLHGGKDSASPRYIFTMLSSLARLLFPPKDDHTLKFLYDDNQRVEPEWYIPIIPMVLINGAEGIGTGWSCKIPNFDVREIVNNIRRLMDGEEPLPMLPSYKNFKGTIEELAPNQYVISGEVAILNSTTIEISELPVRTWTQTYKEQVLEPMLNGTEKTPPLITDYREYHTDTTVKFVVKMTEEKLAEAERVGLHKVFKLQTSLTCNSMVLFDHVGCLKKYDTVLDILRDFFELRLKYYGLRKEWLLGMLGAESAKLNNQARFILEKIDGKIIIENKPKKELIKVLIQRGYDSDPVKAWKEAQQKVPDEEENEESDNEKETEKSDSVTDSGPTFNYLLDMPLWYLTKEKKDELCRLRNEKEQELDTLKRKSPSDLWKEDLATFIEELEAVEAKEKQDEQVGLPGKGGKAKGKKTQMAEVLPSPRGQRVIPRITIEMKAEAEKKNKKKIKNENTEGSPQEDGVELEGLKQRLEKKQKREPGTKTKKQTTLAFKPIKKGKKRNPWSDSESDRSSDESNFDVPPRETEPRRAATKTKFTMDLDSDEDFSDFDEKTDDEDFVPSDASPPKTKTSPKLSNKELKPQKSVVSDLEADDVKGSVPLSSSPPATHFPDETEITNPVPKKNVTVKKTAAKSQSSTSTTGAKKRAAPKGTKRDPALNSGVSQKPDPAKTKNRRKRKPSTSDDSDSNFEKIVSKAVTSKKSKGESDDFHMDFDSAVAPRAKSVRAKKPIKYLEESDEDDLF

Row | Compound | IC50 fold difference vs the corresponding C-NH compound (1N or 1′N) [1] | IC50 [1] | IC50 fold difference vs Compound 1N ([2]; BGC-823 cells) | IC50 [2] | IC50 fold difference vs Compound 1N ([3]; A549 cells) | IC50 at 48 h [4] | G2/M phase arrest [5] | percentage of G2/M phase cells [5] | percentage of G2/M phase cells (maximum) [5] | fluorescence intensity of ROS [6, 9] | amount of ROS (fluorescence intensity × count of cells) improved compared with Compound 1N ([6]; 48 h) | apoptotic pathways activated (BimEL, caspase-9, -8, -3, PARP) [7] | IC50 [3] | fluorescence intensity of ROS ([6]; 48 h induction, half (1S) or most (1N) of the cells) | inhibition of catalytic activity of Topo II (kDNA decatenation) [8] | activation of ATM, ATR, caspase-8, 9 and 3 [7]
1 | COc1cc([C@@H]2c3cc4c(cc3[C@@H](Sc3nc[nH]n3)[C@H]3COC(=O)[C@H]23)OCO4)cc(OC)c1OC [Compound 1S, 4β-S-(1,3,4-trizole-2)-4-deoxy-podophyllotoxin] | about 29 times | 0.17 ± 0.02 µM | ~3 times | 0.34 ± 0.02 µM | ~6 times | 56.1 ± 3.54 µM | did not induce the G2/M phase arrest | about 80% | 80-90% | 10^5–10^6 | 4.8 times | activated the mitochondrial and the death receptor apoptotic pathways |  |  |  | 
2 | COc1cc([C@@H]2c3cc4c(cc3[C@@H](Nc3nc[nH]n3)[C@H]3COC(=O)[C@H]23)OCO4)cc(OC)c1OC [Compound 1N, 4β-NH-(1,2,4-trizole-3)-4-deoxy-podophyllotoxin] |  | 3.85 ± 0.21 µM |  | 1.25 ± 0.13 µM |  | 21.2 ± 2.16 µM | did not induce the G2/M phase arrest | about 80% | 80-90% | 10^5–10^6 |  | only stimulated the mitochondrial apoptotic pathway | 5.33 ± 0.52 µM | 10^4–10^5 |  | 
3 | COc1cc([C@@H]2c3cc4c(cc3[C@@H](Sc3nc[nH]n3)[C@H]3COC(=O)[C@H]23)OCO4)cc(OC)c1O [Compound 1′S, 4β-S-(1,3,4-trizole-2)-4-deoxy-4′-demethylepipodophyllotoxin] | 16 times | 0.32 ± 0.03 µM |  | 8.38 ± 0.53 µM |  | 43.2 ± 1.66 µM |  |  |  |  |  |  | 3.85 ± 0.38 µM |  | nearly inhibited | activation of all these proteins
4 | COc1cc([C@@H]2c3cc4c(cc3[C@@H](Nc3nc[nH]n3)[C@H]3COC(=O)[C@H]23)OCO4)cc(OC)c1O [Compound 1′N, 4β-NH-(1,2,4-trizole-3)-4-deoxy-4′-demethyl-podophyllotoxin] |  | 4.36 ± 0.42 µM |  | 15.6 ± 0.41 µM |  | 38.6 ± 2.52 µM |  |  |  |  |  |  | 4.22 ± 0.43 µM |  |  | significantly weaker signal
5 | COc1cc([C@@H]2c3cc4c(cc3[C@@H](Sc3ccccn3)[C@H]3COC(=O)[C@H]23)OCO4)cc(OC)c1O [3′S, 4β-S-(pyridine-2)-4-deoxy-4′-demethyl-podophyllotoxin] |  | 5.6 ± 0.39 µM |  | 10.3 ± 0.34 µM |  |  |  |  |  |  |  |  | 3.85 ± 0.35 µM |  | nearly inhibited | 

Source: paper PMC4595834, “Comparison of carbon-sulfur and carbon-amine bond in therapeutic drug: 4β-S-aromatic heterocyclic podophyllum derivatives display antitumor activity” (Scientific Reports, 2015)
